What follows are compounds tested on Jurkat IL-2 Production (assay: Jurkat IL-2 Production Assay). Conditions: Homo sapiens, Jurkat cell (ATCC), 18-20 h incubation, PHA 5 μg/mL with 1% FBS, or PMA/Ionomycin with 30% FBS (table does not say which).
Type: cell-based
Experimental: Jurkat IL-2 Production Assay
Cell: Jurkat cell (ATCC) was grown in RPMI 1640 with 10% FBS and 1% penicillin/streptomycin. The cell density was kept at 1.2-1.8×10^6/mL in culture flask before seeding into culture plate, and the cell density in the plate was 0.5×10^6/[…]/well.
Culture media: RPMI 1640 with 1% FBS or 30% FBS for high serum assay.
Test compound: serial dilution was done in 100% DMSO, and intermediate dilution was done with RPMI 1640 medium with 1% FBS. The DMSO final concentration in culture well was 0.25%.
Stimulant: PHA (Sigma#L9017-10MG) was used for the assay with 1% FBS in culture medium, and added after 10 minutes exposure of cell to compound/DMSO. The PHA final concentration in culture well was 5 μg/mL. PMA (Sigma# P-8139 5MG)/Ionomycin (Sigma# 10634-5MG) was used for the assay with 30% FBS in culture medium, and added at same time point as the 1% FBS culture assay. The final concentration of PMA was 50 ng/mL, and Ionomycin final concentration was 500 ng/mL.
Incubation: at 37° C. with 5% CO2 and 95% humidity for 18 h˜20 h.
IC50: IC50 was calculated with the data analysis software XLfit4, General Pharmacology model 251.

IC50 [nM]	Compound
57	Cn1nc(-c2ccncc2)cc1-c1ccc2[nH]c(-c3c(F)cccc3F)cc2c1 [Example 17, 2-(2,6-Difluoro-phenyl)-5-(2-methyl-5-pyridin-4-yl-2H-pyrazol-3-yl)-1H-indole]
102	CCn1nc(-c2ccncc2)cc1-c1ccc2[nH]c(-c3c(F)cccc3F)cc2c1 [Example 18, 2-(2,6-Difluoro-phenyl)-5-(2-ethyl-5-pyridin-4-yl-2H-pyrazol-3-yl)-1H-indole]
198	Cn1nc(-c2cccnc2)cc1-c1ccc2[nH]c(-c3c(F)cccc3F)cc2c1 [Example 19, 2-(2,6-Difluoro-phenyl)-5-(2-methyl-5-pyridin-3-yl-2H-pyrazol-3-yl)-1H-indole]
101	CCn1nc(-c2cccnc2)cc1-c1ccc2[nH]c(-c3c(F)cccc3F)cc2c1 [Example 20, 2-(2,6-Difluoro-phenyl)-5-(2-ethyl-5-pyridin-3-yl-2H-pyrazol-3-yl)-1H-indole]
90	Cc1sc(-c2ccncc2)nc1-c1ccc2[nH]c(-c3c(F)cccc3F)cc2c1 [Example 21, 2-(2,6-Difluoro-phenyl)-5-(5-methyl-2-pyridin-4-yl-thiazol-4-yl)-1H-indole]
150	Cc1sc(-c2ccncc2)nc1-c1ccc2[nH]c(-c3ccccc3Cl)cc2c1 [Example 22, 2-(2-Chloro-phenyl)-5-(5-methyl-2-pyridin-4-yl-thiazol-4-yl)-1H-indole]
210	Cc1ccc(-c2ncco2)cc1-c1ccc2[nH]c(-c3c(F)cccc3F)cc2c1 [Example 23, 2-(2,6-Difluoro-phenyl)-5-(2-methyl-5-oxazol-2-yl-phenyl)-1H-indole]
427	Fc1cccc(F)c1-c1cc2cc(-c3cccc(-c4ncco4)c3)ccc2[nH]1 [Example 24, 2-(2,6-Difluoro-phenyl)-5-(3-oxazol-2-yl-phenyl)-1H-indole]
224	Cc1ccc(-c2nccs2)cc1-c1ccc2[nH]c(-c3c(F)cccc3F)cc2c1 [Example 25, 2-(2,6-Difluoro-phenyl)-5-(2-methyl-5-thiazol-2-yl-phenyl)-1H-indole]
639	COc1ccc(OC)c(-c2ccc3[nH]c(-c4c(F)cccc4F)cc3c2)c1 [Example 26, 2-(2,6-Difluoro-phenyl)-5-(2,5-dimethoxy-phenyl)-1H-indole]
97	Cc1cc(C#N)ccc1-c1ccc2[nH]c(-c3c(F)cccc3F)cc2c1 [Example 27, 4-[2-(2,6-Difluoro-phenyl)-1H-indol-5-yl]-3-methyl-benzonitrile]
123	COc1ccc(-c2ccc3[nH]c(-c4c(F)cccc4F)cc3c2)c(C)c1 [Example 28, 2-(2,6-Difluoro-phenyl)-5-(4-methoxy-2-methyl-phenyl)-1H-indole]
168	Cc1ccc(-c2ccc3[nH]c(-c4c(F)cccc4F)cc3c2)c(C)c1 [Example 29, 2-(2,6-Difluoro-phenyl)-5-(2,4-dimethyl-phenyl)-1H-indole]
85	COC(=O)c1ccc(-c2ccc3[nH]c(-c4c(F)cccc4F)cc3c2)c(C)c1 [Example 30]
174	Cc1cc(Cl)ccc1-c1ccc2[nH]c(-c3c(F)cccc3F)cc2c1 [Example 31, 5-(4-Chloro-2-methyl-phenyl)-2-(2,6-difluoro-phenyl)-1H-indole]
71	Cc1cc(C(F)(F)F)ccc1-c1ccc2[nH]c(-c3c(F)cccc3F)cc2c1 [Example 32, 2-(2,6-Difluoro-phenyl)-5-(2-methyl-4-trifluoromethyl-phenyl)-1H-indole]

Continued, compound first:

Compound	IC50 [nM]
Cn1nc(C(F)(F)F)cc1-c1ccc2[nH]c(-c3c(F)cccc3F)cc2c1 [Example 1, 2-(2,6-Difluoro-phenyl)-5-(2-methyl-5-trifluoromethyl-2H-pyrazol-3-yl)-1H-indole]	46
COc1ccc2c(c1)nc(C(F)(F)F)n2-c1ccc2[nH]c(-c3c(F)cccc3F)cc2c1 [Example 2, 1-[2-(2,6-Difluoro-phenyl)-1H-indol-5-yl]-5-methoxy-2-trifluoromethyl-1H-benzoimidazole]	830
Cn1nc(C(F)(F)F)cc1-c1ccc2[nH]c(-c3ccc(OC(F)(F)F)cc3)cc2c1 [Example 3, 5-(2-Methyl-5-trifluoromethyl-2H-pyrazol-3-yl)-2-(4-trifluoromethoxy-phenyl)-1H-indole]	954
Cc1sc(-c2ccccn2)nc1-c1ccc2[nH]c(-c3c(F)cccc3F)cc2c1 [Example 4, 2-(2,6-Difluoro-phenyl)-5-(5-methyl-2-pyridin-2-yl-thiazol-4-yl)-1H-indole]	219
Cc1sc(-c2ccccn2)nc1-c1ccc2[nH]c(-c3ccccc3Cl)cc2c1 [Example 5, 2-(2-Chloro-phenyl)-5-(5-methyl-2-pyridin-2-yl-thiazol-4-yl)-1H-indole]	223
Cc1ccccc1-c1cc2cc(-c3nc(-c4ccccn4)sc3C)ccc2[nH]1 [Example 6, 5-(5-Methyl-2-pyridin-2-yl-thiazol-4-yl)-2-o-tolyl-1H-indole]	611
Cc1nc(-c2ccccc2)sc1-c1ccc2[nH]c(-c3ccccc3Cl)cc2c1 [Example 7, 2-(2-Chloro-phenyl)-5-(4-methyl-2-phenyl-thiazol-5-yl)-1H-indole]	800
Cc1ncccc1-c1cc2cc(-c3sc(-c4ccccc4)nc3C)ccc2[nH]1 [Example 8, 5-(4-Methyl-2-phenyl-thiazol-5-yl)-2-(2-methyl-pyridin-3-yl)-1H-indole]	287
Cc1sc(-c2ccccn2)nc1-c1ccc2[nH]c(-c3ccncc3F)cc2c1 [Example 9, 2-(3-Fluoro-pyridin-4-yl)-5-(5-methyl-2-pyridin-2-yl-thiazol-4-yl)-1H-indole]	908
Cc1cnccc1-c1cc2cc(-c3nc(-c4ccccn4)sc3C)ccc2[nH]1 [Example 10, 2-(3-Methyl-pyridin-4-yl)-5-(5-methyl-2-pyridin-2-yl-thiazol-4-yl)-1H-indole]	190
Cc1sc(-c2cccnc2)nc1-c1ccc2[nH]c(-c3ccccc3F)cc2c1 [Example 11, 2-(2-Fluoro-phenyl)-5-(5-methyl-2-pyridin-3-yl-thiazol-4-yl)-1H-indole]	169
Cc1sc(-c2cccnc2)nc1-c1ccc2[nH]c(-c3ccccc3Cl)cc2c1 [Example 12, 2-(2-Chloro-phenyl)-5-(5-methyl-2-pyridin-3-yl-thiazol-4-yl)-1H-indole]	86
Cc1sc(-c2cccnc2)nc1-c1ccc2[nH]c(-c3c(F)cccc3F)cc2c1 [Example 13, 2-(2,6-Difluoro-phenyl)-5-(5-methyl-2-pyridin-3-yl-thiazol-4-yl)-1H-indole]	66
Cn1nc(C(F)(F)F)cc1-c1ccc2[nH]c(-c3ccccc3F)cc2c1 [Example 14, 2-(2-Fluoro-phenyl)-5-(2-methyl-5-trifluoromethyl-2H-pyrazol-3-yl)-1H-indole]	337
CCn1nc(-c2ccccc2)cc1-c1ccc2[nH]c(-c3c(F)cccc3F)cc2c1 [Example 15, 2-(2,6-difluoro-phenyl)-5-(2-ethyl-5-phenyl-2H-pyrazol-3-yl)-1H-indole]	468
CCn1nc(-c2ccccn2)cc1-c1ccc2[nH]c(-c3c(F)cccc3F)cc2c1 [Example 16, 2-(2,6-Difluoro-phenyl)-5-(2-ethyl-5-pyridin-2-yl-2H-pyrazol-3-yl)-1H-indole]	211

Source: patent publication US20110071150A1 (priority 2009, published 2011)
